{
  "source": "patent US10945969B2",
  "about": "“Compositions containing thymohydroquinone and their method of preparation” (SAMI LABS LIMITED, priority 2017, dated 2021)",
  "key": {"[1]": {"conditions": "compared with thymoquinone; cited from earlier work"}, "[2]": {"test": "Long term stability study", "format": "physicochemical"}, "[3]": {"conditions": "compared with thymoquinone; cited from earlier work", "remark": "listed apart in the source"}, "[4]": {"test": "Accelerated stability study", "format": "physicochemical", "conditions": "for THQ content by GC (%) / Difference in THQ content (%) / Percentage difference in THQ / TQ content by GC (%) / Difference in TQ content / Percentage difference in TQ: accelerated stability"}, "[5]": {"conditions": "over the accelerated stability study"}},
  "data": [
    {"smiles": "Cc1cc(O)c(C(C)C)cc1O", "note": "[THQ, thymohydroquinone]", "values": [
      {"measurement": "antioxidant potential", "setting": "[1]", "value": "more potent"},
      {"measurement": "THQ content by GC (%)", "setting": "[2]; 3rd month", "value": 0.095, "unit": "%"},
      {"measurement": "Difference in THQ content", "setting": "[2]; 3rd month vs initial", "value": 0.062, "unit": "%"},
      {"measurement": "Percentage difference in THQ", "setting": "[2]; 3rd month vs initial", "value": "+187.88%"},
      {"measurement": "THQ content by GC (%)", "setting": "[2]; 6th month", "value": 0.138, "unit": "%"},
      {"measurement": "Difference in THQ content", "setting": "[2]; 6th month vs initial", "value": 0.105, "unit": "%"},
      {"measurement": "Percentage difference in THQ", "setting": "[2]; 6th month vs initial", "value": "+318.18%"},
      {"measurement": "Difference in THQ content", "setting": "[2]; Initial (0 Month)", "value": 0, "unit": "%"},
      {"measurement": "Percentage difference in THQ", "setting": "[2]; Initial (0 Month)", "value": 0, "unit": "%"},
      {"measurement": "THQ content by GC (%)", "setting": "[2]; Initial (0 Month)", "value": 0.033, "unit": "%"},
      {"measurement": "anti-inflammatory potential", "setting": "[3]", "value": "more potent"},
      {"measurement": "THQ content by GC (%)", "setting": "[4]; 1st month", "value": 0.037, "unit": "%"},
      {"measurement": "Difference in THQ content (%)", "setting": "[4]; 1st month vs initial", "value": 0.004, "unit": "%"},
      {"measurement": "Percentage difference in THQ", "setting": "[4]; 1st month vs initial", "value": "+12.12%"},
      {"measurement": "THQ content by GC (%)", "setting": "[4]; 2nd month", "value": 0.041, "unit": "%"},
      {"measurement": "Difference in THQ content (%)", "setting": "[4]; 2nd month vs initial", "value": 0.008, "unit": "%"},
      {"measurement": "Percentage difference in THQ", "setting": "[4]; 2nd month vs initial", "value": "+24.24%"},
      {"measurement": "THQ content by GC (%)", "setting": "[4]; 3rd month", "value": 0.092, "unit": "%"},
      {"measurement": "Difference in THQ content (%)", "setting": "[4]; 3rd month vs initial", "value": 0.059, "unit": "%"},
      {"measurement": "Percentage difference in THQ", "setting": "[4]; 3rd month vs initial", "value": "+178.78%"},
      {"measurement": "THQ content by GC (%)", "setting": "[4]; 6th month", "value": 0.120, "unit": "%"},
      {"measurement": "Difference in THQ content (%)", "setting": "[4]; 6th month vs initial", "value": 0.087, "unit": "%"},
      {"measurement": "Percentage difference in THQ", "setting": "[4]; 6th month vs initial", "value": "+263.63%"},
      {"measurement": "Difference in THQ content (%)", "setting": "[4]; Initial (0 month)", "value": 0, "unit": "%"},
      {"measurement": "Percentage difference in THQ", "setting": "[4]; Initial (0 month)", "value": 0, "unit": "%"},
      {"measurement": "THQ content by GC (%)", "setting": "[4]; Initial (0 month)", "value": 0.033, "unit": "%"},
      {"measurement": "thymohydroquinone quantity, trend", "setting": "[4]; [5]", "value": "gradual increase"}
    ]},
    {"smiles": "CC1=CC(=O)C(C(C)C)=CC1=O", "note": "[TQ, thymoquinone]", "values": [
      {"measurement": "TQ content by GC (%)", "setting": "[2]; 3rd month", "value": 0.643, "unit": "%"},
      {"measurement": "Difference in TQ content", "setting": "[2]; 3rd month vs initial", "value": 0.09, "unit": "%"},
      {"measurement": "Percentage difference in TQ", "setting": "[2]; 3rd month vs initial", "value": "−12.27", "unit": "%"},
      {"measurement": "TQ content by GC (%)", "setting": "[2]; 6th month", "value": 0.634, "unit": "%"},
      {"measurement": "Difference in TQ content", "setting": "[2]; 6th month vs initial", "value": 0.099, "unit": "%"},
      {"measurement": "Percentage difference in TQ", "setting": "[2]; 6th month vs initial", "value": "−13.50", "unit": "%"},
      {"measurement": "Difference in TQ content", "setting": "[2]; Initial (0 Month)", "value": 0, "unit": "%"},
      {"measurement": "Percentage difference in TQ", "setting": "[2]; Initial (0 Month)", "value": 0, "unit": "%"},
      {"measurement": "TQ content by GC (%)", "setting": "[2]; Initial (0 Month)", "value": 0.733, "unit": "%"},
      {"measurement": "TQ content by GC (%)", "setting": "[4]; 1st month", "value": 0.717, "unit": "%"},
      {"measurement": "Difference in TQ content", "setting": "[4]; 1st month vs initial", "value": 0.016, "unit": "%"},
      {"measurement": "Percentage difference in TQ", "setting": "[4]; 1st month vs initial", "value": "−2.18", "unit": "%"},
      {"measurement": "TQ content by GC (%)", "setting": "[4]; 2nd month", "value": 0.706, "unit": "%"},
      {"measurement": "Difference in TQ content", "setting": "[4]; 2nd month vs initial", "value": 0.027, "unit": "%"},
      {"measurement": "Percentage difference in TQ", "setting": "[4]; 2nd month vs initial", "value": "−3.68", "unit": "%"},
      {"measurement": "TQ content by GC (%)", "setting": "[4]; 3rd month", "value": 0.622, "unit": "%"},
      {"measurement": "Difference in TQ content", "setting": "[4]; 3rd month vs initial", "value": 0.111, "unit": "%"},
      {"measurement": "Percentage difference in TQ", "setting": "[4]; 3rd month vs initial", "value": "−15.14", "unit": "%"},
      {"measurement": "TQ content by GC (%)", "setting": "[4]; 6th month", "value": 0.548, "unit": "%"},
      {"measurement": "Difference in TQ content", "setting": "[4]; 6th month vs initial", "value": 0.185, "unit": "%"},
      {"measurement": "Percentage difference in TQ", "setting": "[4]; 6th month vs initial", "value": "−25.23", "unit": "%"},
      {"measurement": "Difference in TQ content", "setting": "[4]; Initial (0 month)", "value": 0, "unit": "%"},
      {"measurement": "Percentage difference in TQ", "setting": "[4]; Initial (0 month)", "value": 0, "unit": "%"},
      {"measurement": "TQ content by GC (%)", "setting": "[4]; Initial (0 month)", "value": 0.733, "unit": "%"},
      {"measurement": "content of thymoquinone, trend", "setting": "[4]; [5]", "value": "decrease"}
    ]}
  ]
}
